The values that follow come from patent US9474758B2, “Thienopyrimidinedione derivatives as TRPA1 modulators” (Glenmark Pharmaceuticals S.A., priority 2009, dated 2016).

The inhibition is the relative decrease from the control value, in per cent. One may read the IC50 as the concentration that inhibits the measured activity by half.

For experiment [1], the target named is T1, Human TRPA1 expressing CHO cells (Homo sapiens, UniProt O75762).
T1 construct: expressed in transfected cells; host or cells: CHO cells (G-418 selection)
Description: 45Calcium uptake assay, inhibition of AITC induced calcium uptake (human). In kind it is cell-based. Conditions: human TRPA1 CHO cells, AITC 30 μM; for inhibition at 1 µM: compound 1.0 μM, read-out: Percentage inhibition at 1.0 μM; for inhibition at 10 µM: compound 10.0 μM, read-out: Percentage inhibition at 10.0 μM; for IC50: read-out: Human IC50 value (Range). The protocol:
(§1) Screening for TRPA1 Antagonist Using the ^45Calcium Uptake Assay:
(§2) The inhibition of TRPA1 receptor activation was measured as inhibition of allyl isothiocyanate (AITC) induced cellular uptake of radioactive calcium.
(§3) Test compounds were dissolved in 100% DMSO to prepare 10 mM stock and then diluted using plain medium with 0.1% BSA and 1.8 mM CaCl2 to get the desired concentration. The final concentration of DMSO in the reaction was 0.5% (v/v). […] Rat TRPA1 expressing CHO cells were grown in F-12 DMEM medium with 10% FBS, 1% penicillin-streptomycin solution, and 400 μg/ml of Zeocin. […] Cells were treated with the test compounds for 10 minutes followed by the addition of AITC at a final concentration of 30 μM (for human TRPA1) and/or 10 μM (for rat TRPA1) and 5 μCi/ml ^45Ca^+2 for 3 minutes. Cells were washed and lysed using a buffer containing 1% Triton X-100, 0.1% deoxycholate and 0.1% SDS. Radioactivity in the lysate was measured in a Packard TopCount after addition of liquid scintillant.
(§4) Concentration response curves were plotted as a % of maximal response obtained in the absence of test antagonist. IC50 values can be calculated from concentration response curve by nonlinear regression analysis using GraphPad PRISM software.

Experiment [2] concerns the target T2, Rat TRPA1 expressing CHO cells (Rattus norvegicus, UniProt Q6RI86).
T2 construct: expressed in transfected cells; host or cells: CHO cells (Zeocin selection)
Description: 45Calcium uptake assay, inhibition of AITC induced calcium uptake (rat). Conditions: rat TRPA1 CHO cells, AITC 10 μM; for inhibition at 1 µM: compound 1.0 μM, read-out: Percentage inhibition at 1.0 μM; for inhibition at 10 µM: compound 10.0 μM, read-out: Percentage inhibition at 10.0 μM; for IC50: read-out: Rat IC50 value (Range). In kind it is cell-based. How it is done:
as §1, §2, §3, §4

T1 sequence (O75762 whole entry): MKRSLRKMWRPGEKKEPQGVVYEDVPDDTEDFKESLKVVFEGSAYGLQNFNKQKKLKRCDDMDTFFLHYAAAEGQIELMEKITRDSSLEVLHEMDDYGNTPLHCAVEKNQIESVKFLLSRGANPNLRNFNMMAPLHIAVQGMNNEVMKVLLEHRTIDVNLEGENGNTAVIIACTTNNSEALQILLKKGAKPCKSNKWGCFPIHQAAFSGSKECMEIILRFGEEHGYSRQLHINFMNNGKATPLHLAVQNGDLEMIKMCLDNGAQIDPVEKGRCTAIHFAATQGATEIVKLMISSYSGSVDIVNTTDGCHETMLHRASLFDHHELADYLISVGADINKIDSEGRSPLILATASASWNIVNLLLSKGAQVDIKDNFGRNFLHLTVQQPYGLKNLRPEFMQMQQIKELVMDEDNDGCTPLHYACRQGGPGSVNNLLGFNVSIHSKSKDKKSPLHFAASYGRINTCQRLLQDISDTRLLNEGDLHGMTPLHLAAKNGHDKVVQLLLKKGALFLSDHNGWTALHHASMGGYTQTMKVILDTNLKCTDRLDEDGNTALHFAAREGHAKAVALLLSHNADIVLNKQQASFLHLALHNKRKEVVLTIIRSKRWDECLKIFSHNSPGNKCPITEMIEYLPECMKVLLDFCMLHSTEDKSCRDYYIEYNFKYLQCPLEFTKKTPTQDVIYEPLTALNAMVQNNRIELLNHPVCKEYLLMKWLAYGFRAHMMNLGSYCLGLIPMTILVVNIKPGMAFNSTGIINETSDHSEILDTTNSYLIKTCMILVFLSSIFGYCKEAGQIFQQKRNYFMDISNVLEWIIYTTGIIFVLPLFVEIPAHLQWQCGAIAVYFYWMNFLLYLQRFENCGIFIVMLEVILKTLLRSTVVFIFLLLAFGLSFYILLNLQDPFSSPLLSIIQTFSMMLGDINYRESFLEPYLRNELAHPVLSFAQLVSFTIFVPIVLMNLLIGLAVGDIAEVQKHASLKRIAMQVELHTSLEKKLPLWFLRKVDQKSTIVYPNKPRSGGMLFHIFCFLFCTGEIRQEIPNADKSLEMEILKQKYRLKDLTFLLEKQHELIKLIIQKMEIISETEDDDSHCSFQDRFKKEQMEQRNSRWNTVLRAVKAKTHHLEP
T2 sequence (Q6RI86 whole entry): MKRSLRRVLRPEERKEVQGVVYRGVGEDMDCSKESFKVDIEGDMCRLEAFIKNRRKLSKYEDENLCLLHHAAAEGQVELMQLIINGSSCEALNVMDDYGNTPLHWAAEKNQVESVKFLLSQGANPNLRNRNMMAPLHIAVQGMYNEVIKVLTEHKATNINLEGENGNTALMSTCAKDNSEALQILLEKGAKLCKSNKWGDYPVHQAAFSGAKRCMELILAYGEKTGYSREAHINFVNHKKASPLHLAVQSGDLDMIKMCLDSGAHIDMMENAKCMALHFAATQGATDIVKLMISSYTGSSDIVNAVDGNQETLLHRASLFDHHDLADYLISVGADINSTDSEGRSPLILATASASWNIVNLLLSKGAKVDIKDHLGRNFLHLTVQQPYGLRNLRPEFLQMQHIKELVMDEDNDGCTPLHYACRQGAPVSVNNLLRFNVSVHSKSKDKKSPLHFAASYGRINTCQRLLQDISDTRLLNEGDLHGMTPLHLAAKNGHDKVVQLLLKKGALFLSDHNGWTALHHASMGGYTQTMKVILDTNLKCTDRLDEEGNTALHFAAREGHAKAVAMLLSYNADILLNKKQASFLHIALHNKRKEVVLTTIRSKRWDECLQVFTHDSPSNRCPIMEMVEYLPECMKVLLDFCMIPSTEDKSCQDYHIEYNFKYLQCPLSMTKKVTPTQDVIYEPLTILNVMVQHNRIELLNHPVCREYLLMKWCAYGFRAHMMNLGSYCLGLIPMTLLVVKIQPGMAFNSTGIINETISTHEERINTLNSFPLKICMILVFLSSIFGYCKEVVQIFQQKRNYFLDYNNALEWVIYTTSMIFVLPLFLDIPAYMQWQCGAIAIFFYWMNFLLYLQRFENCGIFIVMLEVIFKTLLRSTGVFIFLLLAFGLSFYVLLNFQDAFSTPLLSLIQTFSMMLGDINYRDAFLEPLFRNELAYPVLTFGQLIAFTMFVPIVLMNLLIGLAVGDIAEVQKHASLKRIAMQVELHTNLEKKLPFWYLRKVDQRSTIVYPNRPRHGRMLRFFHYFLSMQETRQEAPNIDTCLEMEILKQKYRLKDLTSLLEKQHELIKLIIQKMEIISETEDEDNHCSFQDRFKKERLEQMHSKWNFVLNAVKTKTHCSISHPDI

For the molecule `Cn1c(=O)c2c(CC(=O)Nc3nc(-c4cc(F)c(C(F)(F)F)c(F)c4)cs3)scc2n(C)c1=O` [Example 58, N-{4-[3,5-difluoro-4-(trifluoromethyl)phenyl]-1,3-thiazol-2-yl}-2-(1,3-dimethyl-2,4-dioxo-1,2,3,4-tetrahydrothieno[3,4-d]pyrimidin-5-yl)acetamide], in experiment [1], the inhibition at 1 µM was determined as 84.9%, the inhibition at 10 µM is 95.8% and the IC50 was less than 50 nM. Also, in experiment [2], the inhibition at 1 µM was 71.1% and the inhibition at 10 µM amounted to 71.7%.

With `Cc1sc2c(c1CC(=O)Nc1nc(-c3ccc(F)c(C(F)(F)F)c3F)cs1)c(=O)n(C)c(=O)n2C` [Example 27, N-{4-[2,4-Difluoro-3-(trifluoromethyl)phenyl]-1,3-thiazol-2-yl}-2-(1,3,6-trimethyl-2,4-dioxo-1,2,3,4-tetrahydrothieno[2,3-d]pyrimidin-5-yl)acetamide], in experiment [1], the inhibition at 1 µM stood at 93.2%, the inhibition at 10 µM came out at 99.1% and the IC50 was less than 50 nM. In addition, in experiment [2], the inhibition at 1 µM is 97.9%, the inhibition at 10 µM stood at 98% and the IC50 was in the range of 50 to 500 nM.

On to `CCc1sc2c(c1CC(=O)Nc1nc(-c3ccc(C#N)cc3)cs1)c(=O)n(C)c(=O)n2C` [Example 30, N-[4-(4-Cyanophenyl)-1,3-thiazol-2-yl]-2-(6-ethyl-1,3-dimethyl-2,4-dioxo-1,2,3,4-tetrahydrothieno[2,3-d]pyrimidin-5-yl)acetamide], for which, in experiment [1], the inhibition at 1 µM was found to be 88.9%, the inhibition at 10 µM was 98.4% and the IC50 fell in the range of 50 to 500 nM. For the same molecule, in experiment [2], the inhibition at 1 µM is 46.4% and the inhibition at 10 µM turned out to be 83.6%.

For `Cn1c(=O)c2c(CC(=O)Nc3nc(-c4cccc(C(F)(F)F)c4F)cs3)csc2n(C)c1=O` [Example 9, 2-(1,3-Dimethyl-2,4-dioxo-1,2,3,4-tetrahydrothieno[2,3-d]pyrimidin-5-yl)-N-{4-[2-fluoro-3-(trifluoromethyl)phenyl]-1,3-thiazol-2-yl}acetamide], in experiment [1], the inhibition at 1 µM came out at 99.2%, the inhibition at 10 µM stood at 98.4% and the IC50 is less than 50 nM. Also, in experiment [2], the inhibition at 1 µM was 100%, the inhibition at 10 µM amounted to 100% and the IC50 lay in the range of 50 to 500 nM.

On to `Cn1c(=O)c2c(CC(=O)Nc3nc(-c4ccc(F)c(C(F)(F)F)c4)cs3)scc2n(C)c1=O` [Example 49, 2-(1,3-Dimethyl-2,4-dioxo-1,2,3,4-tetrahydrothieno[3,4-d]pyrimidin-5-yl)-N-{4-[4-fluoro-3-(trifluoromethyl)phenyl]-1,3-thiazol-2-yl}acetamide], for which, in experiment [1], the inhibition at 1 µM turned out to be 96%, the inhibition at 10 µM worked out at 99.8% and the IC50 was less than 50 nM. In addition, in experiment [2], the inhibition at 1 µM was found to be 89.9%, the inhibition at 10 µM stood at 99% and the IC50 was 50 to 500 nM.

As to `Cc1sc2c(c1CC(=O)Nc1nc(-c3ccc(Cl)cc3)cs1)c(=O)n(C)c(=O)n2C` [Example 19, N-[4-(4-Chlorophenyl)-1,3-thiazol-2-yl]-2-(1,3,6-trimethyl-2,4-dioxo-1,2,3,4-tetrahydrothieno[2,3-d]pyrimidin-5-yl)acetamide], in experiment [1], the inhibition at 1 µM was 95%, the inhibition at 10 µM is 98.2% and the concentration for half-maximal inhibition (IC50) was in the range of 50 to 500 nM. In experiment [2], the inhibition at 1 µM worked out at 89.4% and the inhibition at 10 µM worked out at 99.2%.

For the molecule `Cn1c(=O)c2c(CC(=O)Nc3nc(-c4cc(F)cc(C(F)(F)F)c4)cs3)scc2n(C)c1=O` [Example 54, 2-(1,3-Dimethyl-2,4-dioxo-1,2,3,4-tetrahydrothieno[3,4-d]pyrimidin-5-yl)-N-{4-[3-fluoro-5-(trifluoromethyl)phenyl]-1,3-thiazol-2-yl}acetamide], in experiment [1], the inhibition at 1 µM was determined as 95.1%, the inhibition at 10 µM turned out to be 99.7% and the IC50 is less than 50 nM. Also, in experiment [2], the inhibition at 1 µM is 41.6% and the inhibition at 10 µM came out at 91.8%.

As for `Cc1sc2c(c1CC(=O)Nc1nc(-c3ccc(OC(F)(F)F)c(F)c3)cs1)c(=O)n(C)c(=O)n2C` [Example 26, N-{4-[3-Fluoro-4-(trifluoromethoxy)phenyl]-1,3-thiazol-2-yl}-2-(1,3,6-trimethyl-2,4-dioxo-1,2,3,4-tetrahydrothieno[2,3-d]pyrimidin-5-yl)acetamide], in experiment [1], the inhibition at 1 µM turned out to be 100%, the inhibition at 10 µM stood at 100% and the IC50 is less than 50 nM. For the same molecule, in experiment [2], the inhibition at 1 µM stood at 98.2%, the inhibition at 10 µM turned out to be 98.1% and the IC50 was in the range of 50 to 500 nM.

As for `Cn1c(=O)c2c(CC(=O)Nc3nc(-c4ccc(Cl)cc4)cs3)scc2n(C)c1=O` [Example 45, N-[4-(4-Chlorophenyl)-1,3-thiazol-2-yl]-2-(1,3-dimethyl-2,4-dioxo-1,2,3,4-tetrahydrothieno[3,4-d]pyrimidin-5-yl)acetamide], in experiment [1], the inhibition at 1 µM was 94%, the inhibition at 10 µM worked out at 98.9% and the IC50 fell in the range of 50 to 500 nM. For the same molecule, in experiment [2], the inhibition at 1 µM worked out at 66.2% and the inhibition at 10 µM worked out at 94.8%.

With `Cn1c(=O)c2c(CC(=O)Nc3nc(-c4cccc(OC(F)(F)F)c4)cs3)scc2n(C)c1=O` [Example 48, 2-(1,3-Dimethyl-2,4-dioxo-1,2,3,4-tetrahydrothieno[3,4-d]pyrimidin-5-yl)-N-{4-[3-(trifluoromethoxy)phenyl]-1,3-thiazol-2-yl}acetamide], in experiment [1], the inhibition at 1 µM was determined as 95.5%, the inhibition at 10 µM was found to be 98.9% and the IC50 was 50 to 500 nM. Also, in experiment [2], the inhibition at 1 µM stood at 92.5% and the inhibition at 10 µM came to 100%.

Take `CCc1sc2c(c1CC(=O)Nc1nc(-c3ccc(F)c(C(F)(F)F)c3F)cs1)c(=O)n(C)c(=O)n2C` [Example 32]: in experiment [1], the inhibition at 1 µM stood at 99.2%, the inhibition at 10 µM was determined as 99.3% and the IC50 is less than 50 nM. In addition, in experiment [2], the inhibition at 1 µM came out at 99.9%, the inhibition at 10 µM worked out at 98.8% and the IC50 was less than 50 nM.

In the case of `Cn1c(=O)c2c(CC(=O)Nc3nc(-c4ccc(OC(F)(F)F)c(F)c4)cs3)scc2n(C)c1=O` [Example 52, 2-(1,3-Dimethyl-2,4-dioxo-1,2,3,4-tetrahydrothieno[3,4-d]pyrimidin-5-yl)-N-{4-[3-fluoro-4-(trifluoromethoxy)phenyl]-1,3-thiazol-2-yl}acetamide], in experiment [1], the inhibition at 1 µM was 98%, the inhibition at 10 µM is 94.4% and the IC50 was less than 50 nM. In addition, in experiment [2], the inhibition at 1 µM was determined as 92.3%, the inhibition at 10 µM is 98.1% and the IC50 lay in the range of 50 to 500 nM.

With `Cc1sc2c(c1CC(=O)Nc1nc(-c3ccc(F)cc3F)cs1)c(=O)n(C)c(=O)n2C` [Example 22, N-[4-(2,4-Difluorophenyl)-1,3-thiazol-2-yl]-2-(1,3,6-trimethyl-2,4-dioxo-1,2,3,4-tetrahydrothieno[2,3-d]pyrimidin-5-yl)acetamide], in experiment [1], the inhibition at 1 µM came to 89.8%, the inhibition at 10 µM is 100% and the IC50 fell in the range of 50 to 500 nM. Besides, in experiment [2], the inhibition at 1 µM came to 89.8% and the inhibition at 10 µM is 99.8%.

Turning to `Cn1c(=O)c2c(CC(=O)Nc3nc(-c4ccc(C(F)(F)F)c(F)c4)cs3)scc2n(C)c1=O` [Example 50, 2-(1,3-Dimethyl-2,4-dioxo-1,2,3,4-tetrahydrothieno[3,4-d]pyrimidin-5-yl)-N-{4-[3-fluoro-4-(trifluoromethyl)phenyl]-1,3-thiazol-2-yl}acetamide], in experiment [1], the inhibition at 1 µM was found to be 99.5%, the inhibition at 10 µM is 100% and the IC50 was less than 50 nM. In experiment [2], the inhibition at 1 µM came to 57.4% and the inhibition at 10 µM worked out at 99.1%.

Take `CCCc1sc2c(c1CC(=O)Nc1nc(-c3cc(F)c(OC(F)F)c(F)c3)cs1)c(=O)n(C)c(=O)n2C` [Example 36, N-{4-[4-Difluoromethoxy-3,5-difluorophenyl]-1,3-thiazol-2-yl}-2-(1,3-dimethyl-2,4-dioxo-6-propyl-1,2,3,4-tetrahydrothieno[2,3-d]pyrimidin-5-yl) acetamide]: in experiment [1], the inhibition at 1 µM was 98.9%, the inhibition at 10 µM turned out to be 99.8% and the IC50 is less than 50 nM. Also, in experiment [2], the inhibition at 1 µM turned out to be 99.1%, the inhibition at 10 µM was determined as 99.5% and the IC50 fell in the range of 50 to 500 nM.

As to `Cn1c(=O)c2c(CC(=O)Nc3nc(-c4cc(F)c(OCC(F)(F)F)c(F)c4)cs3)scc2n(C)c1=O` [Example 60, N-{4-[3,5-Difluoro-4-(2,2,2-trifluoro-ethoxy)phenyl]-1,3-thiazol-2-yl}-2-(1,3-dimethyl-2,4-dioxo-1,2,3,4-tetrahydrothieno[3,4-d]pyrimidin-5-yl)acetamide], in experiment [1], the inhibition at 1 µM stood at 98%, the inhibition at 10 µM was determined as 97.4% and the IC50 was less than 50 nM. Besides, in experiment [2], the inhibition at 1 µM was found to be 21% and the inhibition at 10 µM came to 95.9%.
